In patent publication US20230065953A1, “NOVEL HETEROARYL-TRIAZOLE COMPOUNDS AS PESTICIDES” (Bayer Aktiengesellschaft, priority 2019, published 2023):

Experiments:
[1] = tested on: larvae of the banded cucumber beetle (Diabrotica balteata); experiment: Diabrotica balteata spray test; type: in vivo; details: 168 h, 100 g/ha (=32 μg/well), wheat seeds, after 7 days, read-out: efficacy (seedling growth)
Procedure: Diabrotica Balteata—Spray Test
• Solvent: 78.0 parts by weight of acetone • 1.5 parts by weight of dimethylformamide • Emulsifier: alkylarylpolyglycol ether
Further test concentrations are prepared by dilution with emulsifier containing water.
Soaked wheat seeds (Triticum aestivum) are placed in a multiple well plate filled with agar and some water and are incubated for 1 day to germinate (5 seeds per well). The germinated wheat seeds are sprayed with a test solution containing the desired concentration of the active ingredient. Afterwards each unit is infected with 10-20 larvae of the banded cucumber beetle (Diabrotica balteata).
After 7 days efficacy in % is determined.

[2] = tested on: fall armyworm larvae (Spodoptera frugiperda); experiment: Spodoptera frugiperda spray test (maize leaf sections); type: in vivo; details: 168 h
Procedure: Spodoptera frugiperda—Spray Test • Solvent: 78.0 parts by weight acetone • 1.5 parts by weight dimethylformamide • Emulsifier: alkylarylpolyglycol ether
To produce a suitable preparation of active compound, 1 part by weight of active compound is mixed with the stated amount of solvents and is diluted with water, containing an emulsifier concentration of 1000 ppm, to the desired concentration. Further test concentrations are prepared by dilution with emulsifier containing water.
Maize (Zea mays) leaf sections are sprayed with a preparation of the active ingredient of the desired concentration. Once dry, the leaf sections are infested with fall armyworm larvae (Spodoptera frugiperda).
After 7 days mortality in % is determined. 100% means all caterpillars have been killed and 0% means none of the caterpillars have been killed.

Cc1nc([C@H](C)NC(=O)c2cc(Cl)cc(C(F)(F)F)c2)n(-c2ncc(C(=O)N(C)C)s2)n1 [I-22]
pest or weed control at 32 µg/disc, 100 g/ha [1]: 100%
mortality at 100 g/ha [2]: 100%

C[C@H](NC(=O)c1cc(F)cc(C#N)c1)c1ncnn1-c1ncc(C#N)s1 [I-41]
pest or weed control at 32 µg/disc, 100 g/ha [1]: 100%
mortality at 100 g/ha [2]: 100%

C[C@H](NC(=O)c1cc(Br)cc(C2(F)CC2)c1)c1ncnn1-c1ncc(C#N)s1 [I-43]
pest or weed control at 32 µg/disc, 100 g/ha [1]: 100%
mortality at 100 g/ha [2]: 100%

C[C@H](NC(=O)c1cc(C(F)F)cc(C2CC2)c1)c1ncnn1-c1ncc(C#N)s1 [I-44]
pest or weed control at 32 µg/disc, 100 g/ha [1]: 100%
mortality at 100 g/ha [2]: 100%

C[C@H](NC(=O)c1cc(Br)cc(C2CC2(F)F)c1)c1ncnn1-c1ncc(C#N)s1 (some centres unmarked) [I-45]
pest or weed control at 32 µg/disc, 100 g/ha [1]: 100%
mortality at 100 g/ha [2]: 100%

C[C@H](NC(=O)c1cc(OC(F)(F)F)cc(S(C)(=O)=O)c1)c1nc(C2CC2)nn1-c1ncc(C#N)s1 [I-48]
pest or weed control at 32 µg/disc, 100 g/ha [1]: 100%
mortality at 100 g/ha [2]: 100%

C[C@H](NC(=O)c1cc(F)cc(C(F)F)c1)c1ncnn1-c1ncc(C#N)s1 [I-49]
pest or weed control at 32 µg/disc, 100 g/ha [1]: 100%
mortality at 100 g/ha [2]: 100%

C[C@H](NC(=O)c1cc(F)cc(OC(F)F)c1)c1ncnn1-c1ncc(C#N)s1 [I-53]
pest or weed control at 32 µg/disc, 100 g/ha [1]: 100%
mortality at 100 g/ha [2]: 100%

C[C@H](NC(=O)c1cc(Br)cc(S(=O)(=O)C(F)(F)F)c1)c1ncnn1-c1ncc(C#N)s1 [I-55]
pest or weed control at 32 µg/disc, 100 g/ha [1]: 100%
mortality at 100 g/ha [2]: 100%

C[C@H](NC(=O)c1cc(C2CC2)cc(S(=O)(=O)C(F)(F)F)c1)c1ncnn1-c1ncc(C#N)s1 [I-56]
pest or weed control at 32 µg/disc, 100 g/ha [1]: 100%
mortality at 100 g/ha [2]: 100%

C[C@H](NC(=O)c1cc(Br)cc(OC(F)(F)F)c1)c1ncnn1-c1ncc(C#N)s1 [I-57]
pest or weed control at 32 µg/disc, 100 g/ha [1]: 80%
mortality at 100 g/ha [2]: 100%

C[C@H](NC(=O)c1cc(Br)cc(C#N)c1)c1ncnn1-c1ncc(C#N)s1 [I-58]
pest or weed control at 32 µg/disc, 100 g/ha [1]: 100%

C[C@H](NC(=O)c1cc(OC(F)(F)F)cc(S(=O)(=O)C2CC2)c1)c1ncnn1-c1ncc(C#N)s1 [I-61]
pest or weed control at 32 µg/disc, 100 g/ha [1]: 100%
mortality at 100 g/ha [2]: 100%

CCS(=O)(=O)c1cc(OC(F)(F)F)cc(C(=O)N[C@@H](C)c2ncnn2-c2ncc(C#N)s2)c1 [I-62]
pest or weed control at 32 µg/disc, 100 g/ha [1]: 100%
mortality at 100 g/ha [2]: 100%

CC(C)S(=O)(=O)c1cc(OC(F)(F)F)cc(C(=O)N[C@@H](C)c2ncnn2-c2ncc(C#N)s2)c1 [I-63]
pest or weed control at 32 µg/disc, 100 g/ha [1]: 100%

Cc1nc([C@H](C)NC(=O)c2cc(Cl)cc(C(F)(F)F)c2)n(-c2ncc(C(=O)NC(C)C)s2)n1 [I-68]
pest or weed control at 32 µg/disc, 100 g/ha [1]: 100%
mortality at 100 g/ha [2]: 100%

CC(NC(=O)c1cc(Br)cc(OCC(F)(F)F)c1)c1ncnn1-c1ncc(C#N)s1 (centres unmarked) [I-88]
pest or weed control at 32 µg/disc, 100 g/ha [1]: 100%
mortality at 100 g/ha [2]: 100%

Cc1nc([C@H](C)NC(=O)c2cc(Br)cc(OCC(F)(F)F)c2)n(-c2ncc(C#N)s2)n1 [I-92]
pest or weed control at 32 µg/disc, 100 g/ha [1]: 100%
mortality at 100 g/ha [2]: 100%

C[C@H](NC(=O)c1cc(Cl)cc(C#N)c1)c1ncnn1-c1ncc(C#N)s1 [I-101]
pest or weed control at 32 µg/disc, 100 g/ha [1]: 100%
mortality at 100 g/ha [2]: 100%

C[C@H](NC(=O)c1cc(Cl)cc(S(=O)(=O)C(F)(F)F)c1)c1ncnn1-c1ncc(C(=O)N(C)C)s1 [I-116]
pest or weed control at 32 µg/disc, 100 g/ha [1]: 100%
mortality at 100 g/ha [2]: 100%

CNC(=O)c1cnc(-n2ncnc2[C@H](C)NC(=O)c2cc(Cl)cc(C3CC3)c2)s1 [I-122]
pest or weed control at 32 µg/disc, 100 g/ha [1]: 100%
mortality at 100 g/ha [2]: 100%

C[C@H](NC(=O)c1cc(OC(F)F)cc(S(C)(=O)=O)c1)c1nc(C2CC2)nn1-c1ncc(C#N)s1 [I-132]
pest or weed control at 32 µg/disc, 100 g/ha [1]: 100%
mortality at 100 g/ha [2]: 100%

C[C@H](NC(=O)c1cc(OC(F)F)cc(S(=O)(=O)C2CC2)c1)c1nc(C2CC2)nn1-c1ncc(C#N)s1 [I-133]
pest or weed control at 32 µg/disc, 100 g/ha [1]: 100%
mortality at 100 g/ha [2]: 100%

C[C@H](NC(=O)c1cc(C#N)cc(OC(F)(F)F)c1)c1ncnn1-c1ncc(C#N)s1 [I-135]
pest or weed control at 32 µg/disc, 100 g/ha [1]: 100%
mortality at 100 g/ha [2]: 100%

C[C@H](NC(=O)c1cc(Cl)nc(OC(F)(F)F)c1)c1ncnn1-c1ncc(C#N)s1 [I-139]
pest or weed control at 32 µg/disc, 100 g/ha [1]: 100%
mortality at 100 g/ha [2]: 100%

CNC(=O)c1cnc(-n2ncnc2[C@H](C)NC(=O)c2cc(Cl)cc(S(=O)(=O)c3ccc(Cl)cc3)c2)s1 [I-140]
pest or weed control at 32 µg/disc, 100 g/ha [1]: 100%
mortality at 100 g/ha [2]: 100%

C[C@H](NC(=O)c1cc(Cl)cc(S(=O)(=O)c2ccc(Cl)cc2)c1)c1ncnn1-c1ncc(C(=O)N(C)C)s1 [I-141]
mortality at 100 g/ha [2]: 100%

C[C@H](NC(=O)c1cc(Cl)cc(S(=O)(=O)c2ccc(Cl)cc2)c1)c1ncnn1-c1ncc(C#N)s1 [I-143]
pest or weed control at 32 µg/disc, 100 g/ha [1]: 80%
mortality at 100 g/ha [2]: 100%

C[C@H](NC(=O)c1cc(OC(F)(F)F)cc(OC(F)(F)F)c1)c1ncnn1-c1ncc(C#N)s1 [I-144]
pest or weed control at 32 µg/disc, 100 g/ha [1]: 100%
mortality at 100 g/ha [2]: 100%

C[C@H](NC(=O)c1cc(Br)cc(OC(F)(F)F)c1)c1ncnn1-c1ncc(C(=O)N(C)C2CC2)s1 [I-145]
pest or weed control at 32 µg/disc, 100 g/ha [1]: 100%
mortality at 100 g/ha [2]: 100%

C[C@H](NC(=O)c1cc(Cl)cc(S(=O)(=O)C(F)F)c1)c1ncnn1-c1ncc(C(=O)N(C)C2CC2)s1 [I-146]
pest or weed control at 32 µg/disc, 100 g/ha [1]: 100%
mortality at 100 g/ha [2]: 100%

C[C@H](NC(=O)c1cc(OC(F)(F)F)cc(S(C)(=O)=O)c1)c1ncnn1-c1ncc(C(=O)N(C)C2CC2)s1 [I-147]
pest or weed control at 32 µg/disc, 100 g/ha [1]: 100%
mortality at 100 g/ha [2]: 100%

C[C@H](NC(=O)c1cc(Cl)cc(S(=O)(=O)c2ccc(Cl)cc2)c1)c1ncnn1-c1ncc(C(=O)N(C)C2CC2)s1 [I-149]
pest or weed control at 32 µg/disc, 100 g/ha [1]: 100%
mortality at 100 g/ha [2]: 100%

C[C@H](NC(=O)c1cc(C(F)F)cc(C(F)F)c1)c1ncnn1-c1ncc(C(=O)N(C)C2CC2)s1 [I-150]
pest or weed control at 32 µg/disc, 100 g/ha [1]: 100%
mortality at 100 g/ha [2]: 100%

C[C@H](NC(=O)c1cc(C(F)(F)F)cc(C(F)(F)F)c1)c1ncnn1-c1ncc(C(=O)N(C)C2CC2)s1 [I-151]
pest or weed control at 32 µg/disc, 100 g/ha [1]: 100%
mortality at 100 g/ha [2]: 100%

C[C@H](NC(=O)c1cc(Cl)cc(S(=O)(=O)C(F)(F)F)c1)c1ncnn1-c1ncc(C(=O)N(C)C2CC2)s1 [I-153]
pest or weed control at 32 µg/disc, 100 g/ha [1]: 100%
mortality at 100 g/ha [2]: 100%

C[C@H](NC(=O)c1cc(C(F)(F)F)cc(C(F)(F)F)c1)c1nc(C2CC2)nn1-c1ncc(C(=O)N(C)C)s1 [I-156]
pest or weed control at 32 µg/disc, 100 g/ha [1]: 100%
mortality at 100 g/ha [2]: 100%

C[C@H](NC(=O)c1cc(OC(F)(F)F)cc(C2CC2)c1)c1nc(C2CC2)nn1-c1ncc(C(=O)N(C)C)s1 [I-157, 2-(3-cyclopropyl-5-{(1S)-1-[3-cyclopropyl-5-(trifluoromethoxy)benzamido]ethyl}-1H-1,2,4-triazol-1-yl)-N,N-dimethyl-1,3-thiazole-5-carboxamide]
pest or weed control at 32 µg/disc, 100 g/ha [1]: 100%
mortality at 100 g/ha [2]: 100%

COc1nc(C(C)NC(=O)c2cc(OC(F)(F)F)cc(S(=O)(=O)C3CC3)c2)n(-c2ncc(C#N)s2)n1 (centres unmarked) [I-200, N-{1-[1-(5-cyano-1,3-thiazol-2-yl)-3-methoxy-1H-1,2,4-triazol-5-yl]ethyl}-3-(cyclopropylsulfonyl)-5-(trifluoromethoxy)benzamide]
pest or weed control at 32 µg/disc, 100 g/ha [1]: 100%
